ChEMBL document CHEMBL1201862, “PubChem BioAssay data set” (2004)
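These data come from cells grown in 96-well plates and exposed to compound for 48 hours at five concentrations. GI50 is the concentration that inhibits growth by half.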 Calls of active or inactive are those of the source. Cut-off read from the data, not from the text of the source: active = GI50 up to about 1.1 µM and inactive = higher.

Tests used:
Assay in all cases: growth of human tumour cells (NCI), 48 h
[1] = test system: SF-268
[2] = test system: SK-MEL-28
[3] = test system: CAKI-1
[4] = test system: PC-3
[5] = test system: RPMI-8226
[6] = test system: ACHN
[7] = test system: MDA-MB-231
[8] = test system: NCI-H460
[9] = test system: SF-539
[10] = test system: RXF 393
[11] = test system: OVCAR-4
[12] = test system: U-251
[13] = test system: HOP-92
[14] = test system: HCT-116
[15] = test system: MCF7
[16] = test system: UACC-62
[17] = test system: HOP-62
[18] = test system: OVCAR-3
[19] = test system: MDA-MB-435
[20] = test system: IGROV-1

Compound	GI50 [1]	GI50 [2]	GI50 [3]	GI50 [4]	GI50 [5]	GI50 [6]	GI50 [7]	GI50 [8]	GI50 [9]	GI50 [10]	GI50 [11]	GI50 [12]	GI50 [13]	GI50 [14]	GI50 [15]	GI50 [16]	GI50 [17]	GI50 [18]	GI50 [19]	GI50 [20]
CCOC(=O)c1c(C)[n+]([O-])c2cc(Cl)c(Cl)cc2[n+]1[O-]	24.5 µM (inactive)	29.4 µM (inactive)	18 µM (inactive)	26.9 µM (inactive)	14.4 µM (inactive)	29.3 µM (inactive)	21.1 µM (inactive)	16.3 µM (inactive)	26.1 µM (inactive)	17.2 µM (inactive)	17.5 µM (inactive)	32.1 µM (inactive)	3.54 µM (inactive)	18.9 µM (inactive)	32.5 µM (inactive)	15.8 µM (inactive)	21 µM (inactive)	15.6 µM (inactive)	18.6 µM (inactive)	7.6 µM (inactive)
O=C1OCC2=C1C(c1ccc3c(c1)OCO3)c1cc3c(cc1O2)OCO3 (stereo not given)	1.94 µM (inactive)	1.72 µM (inactive)	0.807 µM (active)	0.59 µM (active)	0.378 µM (active)	3.27 µM (inactive)	0.813 µM (active)	0.522 µM (active)	0.522 µM (active)	0.828 µM (active)	7.94 µM (inactive)	0.583 µM (active)	14.4 µM (inactive)	0.436 µM (active)	0.341 µM (active)	0.364 µM (active)	0.851 µM (active)	2.72 µM (inactive)	0.0708 µM (active)	0.537 µM (active)
ClCCCSSCCCCl	39.5 µM (inactive)	45 µM (inactive)	32.2 µM (inactive)	24.3 µM (inactive)	31 µM (inactive)	43.8 µM (inactive)	35.8 µM (inactive)	35.6 µM (inactive)	20.7 µM (inactive)	48.9 µM (inactive)	42.7 µM (inactive)	42 µM (inactive)	16.2 µM (inactive)	25.7 µM (inactive)	30.3 µM (inactive)	30.3 µM (inactive)	38.7 µM (inactive)	36.6 µM (inactive)	24.3 µM (inactive)	33 µM (inactive)
CCOC(=O)c1cc2cc(Cc3ccc4[nH]c(C(=O)OCC)cc4c3)ccc2[nH]1	13.5 µM (inactive)	29.4 µM (inactive)	12 µM (inactive)	34.3 µM (inactive)	28.6 µM (inactive)	14.5 µM (inactive)	15.5 µM (inactive)	24.1 µM (inactive)	13.7 µM (inactive)	9.18 µM (inactive)	6.7 µM (inactive)	11.2 µM (inactive)	12.3 µM (inactive)	38.5 µM (inactive)	52.4 µM (inactive)	13.6 µM (inactive)	5.14 µM (inactive)	73.6 µM (inactive)	27.2 µM (inactive)	15.4 µM (inactive)
CCCCCCCCCCCOCCC1C(C(C)OCCN2CCCC2)OC2OC(C)(C)OC21 (stereo not given)	4.59 µM (inactive)	1.64 µM (inactive)	2.4 µM (inactive)	1.97 µM (inactive)	2.07 µM (inactive)	4.63 µM (inactive)	1.85 µM (inactive)	2.07 µM (inactive)	2.07 µM (inactive)	2.39 µM (inactive)	3.98 µM (inactive)	2.24 µM (inactive)	1.82 µM (inactive)	1.82 µM (inactive)	2.65 µM (inactive)	1.81 µM (inactive)	1.91 µM (inactive)	4.95 µM (inactive)	1.89 µM (inactive)	2.42 µM (inactive)
COc1cc2[nH]c3c(c2cc1OC)CCN[C@@]31CC[C@@]2(CC3c4c(cc(OC)c(O)c42)CCN3C)C[C@@H]1OC (stereo not given in full)	47.1 µM (inactive)	17.9 µM (inactive)	35.6 µM (inactive)	48.6 µM (inactive)	25.2 µM (inactive)	46 µM (inactive)	28.1 µM (inactive)	39.4 µM (inactive)	14.9 µM (inactive)	21 µM (inactive)	29 µM (inactive)	29.2 µM (inactive)	22.2 µM (inactive)	28.6 µM (inactive)	> 68.2 µM (inactive)	22.9 µM (inactive)	62.8 µM (inactive)	53.2 µM (inactive)	18.6 µM (inactive)	66.1 µM (inactive)
N=c1c2c(=S)n(-c3ccccc3)c(=S)n(-c3ccccc3)c2nc(SCCCN2CCCCC2)n1-c1ccccc1	1.99 µM (inactive)	2.11 µM (inactive)	1.77 µM (inactive)	1.66 µM (inactive)	0.439 µM (active)	1.7 µM (inactive)	1.64 µM (inactive)	1.93 µM (inactive)	2.93 µM (inactive)	1.64 µM (inactive)	1.81 µM (inactive)	1.74 µM (inactive)	1.78 µM (inactive)	1.73 µM (inactive)	0.329 µM (active)	1.64 µM (inactive)	1.76 µM (inactive)	1.65 µM (inactive)	1.75 µM (inactive)	1.5 µM (inactive)
O=C1Oc2cc3c(c4cccc1c24)O[C@H](c1ccccc1)[C@@H](c1ccccc1)[C@@H]3c1ccc(Cl)cc1	31.9 µM (inactive)	> 100 µM (inactive)	> 100 µM (inactive)	> 100 µM (inactive)	58.1 µM (inactive)	26.7 µM (inactive)	18.3 µM (inactive)	> 100 µM (inactive)	33.7 µM (inactive)	17.4 µM (inactive)	82 µM (inactive)	19.6 µM (inactive)	28.8 µM (inactive)	31.8 µM (inactive)	> 100 µM (inactive)	19.3 µM (inactive)	18.2 µM (inactive)	36.8 µM (inactive)	76.7 µM (inactive)	22.8 µM (inactive)
Cc1nc2c(=O)n3c4c(cccc4c2o1)CCC3	> 100 µM (inactive)	> 100 µM (inactive)	> 100 µM (inactive)	45.9 µM (inactive)	> 100 µM (inactive)	> 100 µM (inactive)	> 100 µM (inactive)	78 µM (inactive)	73.5 µM (inactive)	> 100 µM (inactive)	> 100 µM (inactive)	96.8 µM (inactive)	> 100 µM (inactive)	43.5 µM (inactive)	> 100 µM (inactive)	> 100 µM (inactive)	> 100 µM (inactive)	> 100 µM (inactive)	> 100 µM (inactive)	76.6 µM (inactive)
Cc1ccc2c(O)cc(-c3ccc(Cl)s3)nc2n1	4.1 µM (inactive)	0.665 µM (active)	3.24 µM (inactive)	1.57 µM (inactive)	0.308 µM (active)	8.79 µM (inactive)	5.89 µM (inactive)	0.564 µM (active)	0.538 µM (active)	2.76 µM (inactive)	16.3 µM (inactive)	0.855 µM (active)	> 58.1 µM (inactive)	0.552 µM (active)	0.422 µM (active)	0.643 µM (active)	2.31 µM (inactive)	1.1 µM (active)	0.223 µM (active)	0.564 µM (active)
